Holding throughout (format): in vivo, rat
For assay [1], the system named is rats with chronic constriction injury (CCI) to sciatic nerve. The experiment in a line: Topical application to paws of CCI rats, behavioural reflex testing (thermal PWL, mechanical PWT). As to conditions: for reversal of sensitised responses: topical, (−)-menthol 4 mM, isomenthol and (+)-menthol 8 mM and 16 mM; for analgesia, thermal hyperalgesia (Hargreaves' test): 30 μM topical, CCI model. As for the experimental part: (§1) Pain models were generated under halothane anaesthesia (Zeneca, Cheshire, UK). For the chronic constriction injury (CCI) model of neuropathic pain, four ligatures were tied loosely to constrict the sciatic nerve at mid-thigh level (as described previously^[39]). An inflammatory pain model was generated by injecting 100 μl of Complete Freund's Adjuvant (CFA, Sigma-Aldrich Ltd) into the ventral surface of the right hindpaw^[39]. A model of peripheral demyelination-induced pain was produced by focal application of lysolecithin to the sciatic nerve^[40]. Peak behavioural sensitisation was observed post-surgically between days 10-16 for CCI, 1-3 for CFA, and 7-14 for lysolecithin, when pharmacological and electrophysiological experiments and tissue removal were conducted.
(§2) Thermal sensitivity was assessed by measuring paw withdrawal latency (PWL, s) in response to a noxious thermal stimulus (Hargreaves' thermal stimulator, Linton Instrumentation, Diss, UK) directed to the hindpaw mid-plantar glabrous surface. Mechanical sensitivity was recorded as the paw withdrawal threshold (PWT, mN/mm^2) to calibrated von Frey filaments (Stoelting, Ill., US), as previously described^[39]. Sensitivity to noxious cold was assessed by placing animals in a waterbath with an aluminium floor containing 1 cm deep 4° C. water and counting the time the paw was held suspended over a 20 s period.
Icilin was applied at concentrations of 2.5-500 μM (in water with 0.2% DMF), by placing CCI or naïve rats unrestrained for 5 min in a 1 cm deep waterbath (sufficient to cover paws), which was thermostatically controlled to a temperature of 30° C., or by very lightly anaesthetising rats and immersing hindpaws in small tubes containing 5 ml icilin (500 μM-5 mM, with a vehicle of 45% dimethylformamide in 0.2% aqueous Tween 80) for 5 min, followed by sensory testing for 60-80 mins. The effects of (−)-menthol and its stereoisomers isomenthol (1S,2R,5R-menthol,) and (+)-menthol (1S,2R,5S(+)-menthol) (4-16 mM in 80% ethanol) were also assessed. Relevant vehicles were always assessed in similar experiments. As a contrast, the effect of cinnamaldehyde (1.5 mM in water) and the effect of cinnamaldehyde with additional icilin (80 μM in water with 0.2% DMF) were assessed in naïve animals. The effects of icilin (80 μM) were further assessed in CCI animals that had undergone antisense and mis-sense treatment for knockdown of TRPM8 or immediately following intrathecal injection of either LY 341495 or UBP 1112. […] The effects of brief paw immersion at different temperatures (10-22° C. for 5 min) on CCI rats were assessed by mechanical testing. The effects of intrathecal LY 341495 or UBP 1112 on the reversal of ipsilateral sensitisation in CCI following a 16° C. cool challenge for 5 min were measured. Reflex testing commenced 5 minutes following challenge, unless animals had been anaesthetised, in which case 15 minutes was allowed for recovery. Six replicate animals were tested in all pharmacological experiments.
Antisense and mis-sense oligonucleotides were 22-mers with phosphorothioate bonds at the last two positions at 5′ and 3′ ends (MWG Biotech, Ebersberg, Germany). Antisense extended from base −10 to base +12 relative to the start of the open reading frame for the rat TRPM8 gene: 5′ C*T*CGAAGGACATCTTGCCGT*G*G 3′, where * represents phosphorothioate linkages. Mis-sense was designed with 4 inversions of C/G or A/T as appropriate at residues 3, 11, 14 and 22, preserving overall G/C content. BLAST searches of both oligonucleotides indicated no significant complementarity to any known gene sequence. 14-day or 7-day osmotic minipumps (for CCI experiments or naïve electrophysiology experiments respectively—Alzet Minipump, models 2002, 2001; Charles River, UK) containing oligonucleotides (1 μg/μl in sterile saline) were connected to canulae inserted under the dura of the spinal cord to level L5/6 and produced a predicted infusion rate of 0.5 μl/h. […]

Assay [2] has the same test system. The experiment in a line: Intrathecal application in CCI rats, behavioural reflex testing (PWL, PWT). As to conditions: for effect on contralateral responses / reversal of mechanical reflex sensitisation ipsilateral to CCI / reversal of thermal reflex sensitisation ipsilateral to CCI: 2R,4R-APDC 15 nmol, ACPT-III and AP-4 150 nmol each; for reversal of mechanical reflex sensitisation ipsilateral to CCI / reversal of thermal reflex sensitisation ipsilateral to CCI: 15-30 min post-injection. As for the experimental part:
as §1, §2
The following drugs were applied intrathecally in a 50 μl volume of saline-based vehicle at 37° C.: icilin (2.5-200 μM in saline with 0.2% dimethylformamide, DMF), LY 341495 (100 μM in saline), UBP 1112 (200 μM in saline), 2R,4R-APDC ((2R, 4R)-4-aminopyrrolidine-2,4-dicarboxylate), 300 μM in saline), ACPT-III ((1R,3R,4S)-1-aminocyclopentane-1,3,4-tricarboxylic acid), 3 mM in saline), AP-4, ((L-(1)-2-amino-4-phosphonobutyric acid), 3 mM in saline), naloxone (0.5 mM in saline), NMDA (75 μM in saline) and ACPC (1-aminocyclopropanecarboxylic acid, 15 μM in saline) (Tocris Cookson, Bristol, UK), (−)-menthol (1R,2S,5R-(−)-menthol, 4 mM in saline), cinnamaldehyde (1.5 mM in saline) and Ruthenium Red (5 μM in saline) (Sigma-Aldrich Co. Ltd, UK) and allicin (0.5 mM in saline with 0.5% DMF) and diallyl disulphide (DADS, 1 mM in saline with 0.5% DMF) (LKT Laboratories Inc., St Paul, Minn., USA). Drugs were injected into the L5/6 intrathecal space under brief halothane anaesthesia, using a 25-gauge needle microsyringe (BD Biosciences, Oxford, UK), as described previously^[39] in animals that were at peak levels of behavioural sensitisation. Behavioural reflex testing commenced 15 min following injection to allow recovery from anaesthesia^[40,41,42] and continued every 5 min thereafter until readings returned to baseline levels (n=6 in each case). We, and others^[40,41,42] find complete recovery from anaesthetic by 15 minutes. All appropriate controls were carried out to eliminate the possibility of effects due to vehicle or to injection procedure.
The TRPM8 channel activators, icilin and (−)-menthol were tested in CCI and naïve animals. The effects of icilin were additionally assessed in animals with CFA-induced inflammation or with lysolecithin-induced demyelination. Icilin was also co-administered with the μ-opioid receptor antagonist naloxone, the Group II metabotropic glutamate receptor (mGluR) antagonist, LY 341495, or the Group III mGluR antagonist, UBP 1112. The effects of these antagonists alone as well as effects of the Group II mGluR agonist, 2R,4R-APDC and the Group III mGluR agonists, ACPT-III and AP-4, were assessed in CCI animals. The TRPA1 channel activator, cinnamaldehyde, alone and with icilin, was tested in CCI animals and in naïve animals. Further TRPA1 channel activators, allicin and diallyl disulphide were assessed in naïve animals. Both icilin and cinnamaldehyde effects in CCI animals were also investigated in the additional presence of Ruthenium Red.

The subject of assay [3] is saphenous nerve afferents. The experiment in a line: Saphenous nerve afferent recordings after topical application to receptive field. Particulars: resiniferatoxin 1 mM; for firing frequency after drug / increase in firing frequency: topical icilin 200 μM. The source says: Antisense and mis-sense oligonucleotides were 22-mers with phosphorothioate bonds at the last two positions at 5′ and 3′ ends (MWG Biotech, Ebersberg, Germany). Antisense extended from base −10 to base +12 relative to the start of the open reading frame for the rat TRPM8 gene: 5′ C*T*CGAAGGACATCTTGCCGT*G*G 3′, where * represents phosphorothioate linkages. Mis-sense was designed with 4 inversions of C/G or A/T as appropriate at residues 3, 11, 14 and 22, preserving overall G/C content. BLAST searches of both oligonucleotides indicated no significant complementarity to any known gene sequence. 14-day or 7-day osmotic minipumps (for CCI experiments or naïve electrophysiology experiments respectively—Alzet Minipump, models 2002, 2001; Charles River, UK) containing oligonucleotides (1 μg/μl in sterile saline) were connected to canulae inserted under the dura of the spinal cord to level L5/6 and produced a predicted infusion rate of 0.5 μl/h. CCI surgery was performed at the same time as minipump implantation. Sensory tests were carried out to assess the time-course of behavioural sensitisation in animals which had also undergone a CCI injury. Icilin was applied topically rather than intrathecally so as to prevent any interference with the infusion canula. Peripheral nerve recordings and tissue harvesting were carried out after an interval of 4-5 days to allow time for protein knockdown.
Peripheral: Recordings of saphenous (sensory) nerve were made in naïve animals (n=7) to assess the effects of topical icilin on primary afferents. In addition, recordings were carried out on animals which had undergone TRPM8 antisense or mis-sense treatment beginning 4-5 days previously. Rats were anaesthetised (with 0.6 ml 25% urethane/100 g, i.p.) and the saphenous nerve was exposed and dissected from its associated vein and artery. Further dissection under liquid paraffin enabled identification of afferent preparations comprising a small number of fibres. The conduction velocity of single identified afferent fibres was determined using bipolar electrodes and the peripheral stimulus technique^[43]. Following isolation of preparations, icilin (200 μM in water with 0.2% DMF), (−)-menthol (4 mM in 25% ethanol) resiniferatoxin (1 mM in ethanol) or vehicle alone were applied to the hindlimb receptive fields and neuronal responses recorded using the Chart programme (version 3.6). Central: Recordings of spinal dorsal horn neurons were made in CCI animals, as described previously^[39]. Following halothane induction, the jugular vein and trachea were canulated and intravenous anaesthetic delivered: α-chloralose ([…], Fisher) and urethane ([…], Sigma), with small supplementary doses of α-chloralose as required throughout the experiment. Core body temperature was maintained at 37-38° C. by means of a thermostatically controlled heated blanket. The animal was placed in a stereotaxic frame, and the thoracolumbar spinal column was supported using three pairs of swan-necked clamps. A laminectomy was performed at L2-L5, and agar (2% in saline at 37° C.) was delivered over exposed cord to increase mechanical stability. Above the recording region the agar and spinal cord dura were removed and liquid paraffin poured into the pool. Extracellular recordings were made from single multireceptive neurons in laminae I-IV through the centre barrel of a seven-barrelled glass microelectrode filled with 4M NaCl (tip-diameter […], DC resistance 5-8 MΩ). The receptive fields of hair-follicle innervated neurons on the distal hindlimb were identified by an innocuous brush stimulus^[39]. Icilin (200 μM in water with 0.2% DMF) was applied peripherally to the receptive field of individual recorded neurons, and the effect on neuronal response to a rotating brush was recorded and analysed using Spike2 programme (Version 3.2, CED). […]

[4] abbreviates: mis-sense-treated animals, (−)-menthol 4 mM.

For the compound `CC1CC[C@H](C(C)C)[C@@H](O)C1` (single isomer, unassigned; (+)) [(+)-menthol], the “reversal of sensitised responses” value in assay [1] is “produced reversal of sensitised responses”.
As for `N[C@@]1(C(=O)O)CN[C@@H](C(=O)O)C1` [2R,4R-APDC, (2R, 4R)-4-aminopyrrolidine-2,4-dicarboxylate], in assay [2] (intrathecal), the “effect on contralateral responses” value is reported as “no effect on contralateral responses”, the “reversal of mechanical reflex sensitisation ipsilateral to CCI” value was determined as 56.0±10.9% and the “reversal of thermal reflex sensitisation ipsilateral to CCI” value turned out to be 72.1±6.4%.
For `N[C@]1(C(=O)O)C[C@H](C(=O)O)[C@H](C(=O)O)C1` [ACPT-III, (1R,3R,4S)-1-aminocyclopentane-1,3,4-tricarboxylic acid] the same measures were “no effects contralaterally”, 65.7±11.4% and 83.6±6.3%.
Take `N[C@@H](CCP(=O)(O)O)C(=O)O` [AP-4, L-(1)-2-amino-4-phosphonobutyric acid]: in assay [2] (intrathecal), the “effect on contralateral responses” value is “no effects contralaterally”, the “reversal of mechanical reflex sensitisation ipsilateral to CCI” value came out at 60.7±8.0% and the “reversal of thermal reflex sensitisation ipsilateral to CCI” value was determined as 60.8±6.7%.
In the case of `N.N.N.N.N.N.N.N.N.N.N.N.N.N.[Cl-].[Cl-].[Cl-].[Cl-].[Cl-].[Cl-].[O-2].[O-2].[Ru+3].[Ru+3].[Ru+4]` [Ruthenium Red], in assay [2] (Ruthenium Red 0.25 nmol with icilin 10 nmol), the “effect on analgesic effect of intrathecally-injected icilin” value is recorded as “unaffected”. The “effect on sensitising effects of cinnamaldehyde” value in assay [2] (co-injection of Ruthenium Red 0.25 nmol with cinnamaldehyde 75 nmol, intrathecal) is “prevented”.
As for `COc1ccc(NC(=O)C2CC(C)CCC2C(C)C)cc1` (stereo not drawn) [WS-12, 2-isopropyl-5-methyl-cyclohexanecarboxylic acid (4-methoxyphenyl)amide], the “analgesia, thermal hyperalgesia (Hargreaves' test)” value in assay [1] is given as “causes analgesia”.
Regarding `CC(C)[C@H]1CC[C@@H](C)C[C@@H]1O` [isomenthol, 1S,2R,5R-menthol], the “reversal of sensitised responses” value in assay [1] is reported as “produced reversal of sensitised responses”.
Take `COc1ccccc1N1CC=C(c2cccc([N+](=O)[O-])c2)NC1=O` [methoxy-icilin, 1-(2′-methoxyphenyl)-4-(3″-nitrophenyl)-1,2,3,6-tetrahydropyrimidin-2-one]: the “analgesia, thermal hyperalgesia (Hargreaves' test)” value in assay [1] is on record as “causes analgesia”.
Take `C=CCN1CC[C@]23c4c5ccc(O)c4O[C@H]2C(=O)CC[C@@]3(O)[C@H]1C5` [naloxone]: in assay [2] (naloxone 25 nmol intrathecal co-administration with icilin), the “effect on icilin analgesia” value is “had no effect”.
In the case of `C=C(C)[C@]12C[C@@H](C)[C@@]34O[C@](Cc5ccccc5)(O[C@@H]1[C@@H]3C=C(COC(=O)Cc1ccc(O)c(OC)c1)C[C@]1(O)C(=O)C(C)=C[C@@H]41)O2` [resiniferatoxin], in assay [3] (antisense-treated animals), the “afferents activated out of 28 recorded” value was determined as 16 and the “increase in firing frequency” value was 6 fold. The “firing frequency after drug” value in assay [3] (antisense-treated animals, (−)-menthol 4 mM) amounted to 25.9±1.8 Hz. Also, in assay [3] (setting [4]), the “firing frequency after drug” value was 24.8±3.1 Hz and the “increase in firing frequency” value was found to be 5 fold.

Values taken from patent publication US20100137344A1, “INDUCTION OF ANALGESIA IN NEUROPATHIC PAIN” (University Court of the University of Edinburgh, priority 2006, published 2010).
